In one experiment the target is T1, hPARG (Homo sapiens, UniProt Q86W56, A967T/C963S/D927K/H446G/I916T/L447S/L473S/M841I/N479S/R811K/S802A/S858P/T924D).
T1 construct: human PARG (448-976 [H446G, L447S, L473S, N479S); 6His-TwinStrep (protease-cleavable) (N, cleaved yes); host or cells: E. coli BL21 (DE3)
Nature of the experiment: PARG enzymatic IC50 assay (absorbance, ADP-ribose-pNP substrate). The format is biochemical. Conditions: 2 hours incubation of enzyme with compound; 30 nM hPARG, 800 μM ADP-pNP; read-out: IC50 in μM determined in PARG enzymatic assay (PARG protein and 2 hours incubation). Here is the method: A codon optimized gene encoding human PARG (448-976 [H446G, L447S, L473S, N479S, S802A, R811K, M841I, S858P, 1916T, T924D, D927K, C963S, A967T]) was synthesized by Genscript, and cloned into pET15b (Ncol/BamHI) with an N-terminal, Thrombin protease cleavable 6His-TwinStrep tag. Expression of the protein in E. coli BL21 (DE3) was induced by addition of 0.2 mM IPTG to a shake flask culture grown to OD600=0.8 at 37° C. Growth was allowed to continue at 30° C. for a further 20 hours before harvesting by centrifugation and storage of the cell pellet at −80° C.
Protein was purified by IMAC and SEC: frozen cell pellets (typically 40 g wet weight) were resuspended by homogenization in 5 volumes buffer A (25 mM Tris/HCl pH 8.0, 200 mM NaCl, 2 mM DTT), supplemented with 1 mg of DNase I from bovine pancreas (Sigma-Aldrich) and protease inhibitors (Roche Complete™ EDTA-free protease inhibitor tablet), and lysed by passage through a Constant Systems BasicZ homogenizer. The lysate was clarified by centrifugation for 60 minutes at 25,000 g, 4° C., and the lysate supernatant was loaded onto 5 ml StrepTrap HP (Cytiva) pre-equilibrated with buffer A. The column was washed with buffer A (˜10 CV), then buffer B containing 1M KCl (˜5 CV), and then the protein was eluted with buffer A containing 2.5 mM d-Desthiobiotin. Pooled fractions containing 6HisTwinStrep-TEV-hPARG were incubated with TEV protease overnight at 4° C. hPARG was separated from uncleaved material and Thrombin protease through gel filtration with Superdex75 sizing column (GE Healthcare) pre-equilibrated with SEC buffer (15 mM Tris/HCl pH 8.5, 100 mM NaCl, 2 mM DTT). Pooled fractions containing pure hPARG were concentrated using a 10 k MWCO spin concentrator (VivaSpin) to 10 mg/mL, and then either used immediately for crystallisation or snap-frozen in liquid nitrogen for storage at −80° C.
PARG Enzymatic IC50 Assay
PARG enzyme as incubated with compound or vehicle (DMSO) for 15 minutes or 2 hours in a 384 well plate. After adding the PARG substrate ADP-ribose-pNP, the plate was read for absorbance intensity at 405 nm. The vehicle (DMSO) with high absorbance intensity represents no inhibition of enzymatic reaction while the low control (no enzyme) with low absorbance intensity represents full inhibition of enzymatic reaction.
• hPARG: Peak Protein, 30 nM • Substrate: ADP-pNP, 800 μM, Jena Bioscience catalog #NU-955 • Reaction time: 60 minutes • Assay buffer: 50 mM Tris-HCl pH 8.0, 100 mM NaCl, 2 mM DTT • Temperature: 30° C. • Total volume: 30 μL
• 0% inhibition control: DMSO • 100% inhibition control: No enzyme
The protocol that was used for enzyme reaction and detection is as follows: • 1. Transfer 100 nL of the final concentration of test compounds or vehicle (DMSO) to the appropriate wells of a microtiter plate. • 2. Centrifuge the plate at 1000 rpm for 1 minute. • 3. Transfer 14.6 μL of 2× final concentration of enzyme in assay buffer or assay buffer alone to the appropriate wells. • 4. Centrifuge the plate at 1000 rpm for 1 minute. • 5. Incubate the plate at room temperature for 15 minutes or 2 hours. • 6. Transfer 15.4 μL of 2× substrate in assay buffer to all the test wells. • 7. Centrifuge the plate at 1000 rpm for 1 minute. • 8. Read the plate on a plate reader (e.g., Spark Tecan).

Another experiment relates to PARG in U2OS cells. Nature of the experiment: Cellular PAR chain assay (flow cytometry, PAR chain positive cells). It is filed as cell-based. Conditions: 1 hour compound pretreatment. Here is the method: The ability of compounds to inhibit PARG in response to DNA damage, was assessed with U2OS cells pretreated with the compounds for 1 hour, following a 1-hour treatment with or without the DNA alkylating agent temozolomide (TMZ). […] The cells were incubated for 2 hours at room temperature with a mouse monoclonal antibody against poly (ADP) ribose (PAR) polymer. The cells were washed and incubated with an anti-mouse Alexa-488 conjugated secondary antibody for 1 hour at room temperature. Propidium iodide staining was used to determine DNA content in the cells (staining at 4° C. overnight). The fluorescence intensity of the cells was assessed by flow cytometry (Cytoflex from Beckmann) and the percentage of PAR chain positive cells (gated in relation to TMZ+DMSO treated control) was determined. PAR chain positive cells % were fit against the concentration of the compound using a 4 parameter log-logistic function, generating PAR chain EC50 values: […]

The next experiment deals with NCIH-460 cells. The experiment is described as follows: Cellular viability assay (Cell Titer-Glo), NCIH-460. As to conditions: Homo sapiens, NCI-H460; NCIH-460 (PARG-inhibition sensitive), 96 hours of incubation; read-out: EC50 in μM determined in NCIH-460 cells as described under Cellular viability assay. It is filed as cell-based. Here is the method: (§1) NCIH-460 as a PARG-inhibition sensitive cell line and U2OS as PARG-inhibition insensitive cell line were plated at 1000 cells/well and 2000 cells/well, respectively, in 96-well white plates with clear flat bottom. After 24 hours, the compounds were added with the Tecan digital dispenser (D300e), in duplicates. The outer wells of the plate were excluded. After 96 hours of incubation, 150 μl of the growth medium were removed and 50 μl of Cell Titer-Glo (Promega) were added per well. Following an incubation of 10 minutes, luminescence was read using a plate reader (Tecan). Averaged values of the samples were normalized to DMSO treated control samples. Curves were fit as % of the control vs. log of the compound concentration using a 4 parameter log-logistic function: […]

For another experiment, the system named is U2OS cells. Nature of the experiment: Cellular viability assay (Cell Titer-Glo), U2OS. Conditions: Homo sapiens; U2OS (PARG-inhibition insensitive), 96 hours of incubation; read-out: EC50 in μM determined in U2OS cells as described under Cellular viability assay. The format is cell-based. As for the experimental part:
as §1

Where [1] appears, read: without TMZ, read-out: EC50 in μM determined in cellular assay as described under Cellular PAR chain assay (conditions without treatment of TMZ).
[2] abbreviates: Homo sapiens, then 1-hour treatment with TMZ, read-out: EC50 in μM determined in cellular assay as described under Cellular PAR chain assay (conditions with treatment of TMZ).

Like-named read-outs stand apart in the source and are kept apart here.

Drawing on patent US20250002491A1, “N,N-DIMETHYL-4-(7-(N-(1-METHYLCYCLOPROPYL)SULFAMOYL)-IMIDAZO[1,5-A]PYRIDIN-5-YL)PIPERAZINE-1-CARBOXAMIDE DERIVATIVES AND THE CORRESPONDING PYRAZOLO[1,5-A]PYRIDINE DERIVATIVES AS PARG INHIBITORS FOR THE TREATMENT OF CANCER” (FORX THERAPEUTICS AG, priority 2021, published 2025), this text covers IC50 and EC50 for eight molecules.

T1 sequence (Q86W56 446-976 H446G/L447S/L473S/N479S/S802A/R811K/M841I/S858P/I916T/T924D/D927K/C963S/A967T): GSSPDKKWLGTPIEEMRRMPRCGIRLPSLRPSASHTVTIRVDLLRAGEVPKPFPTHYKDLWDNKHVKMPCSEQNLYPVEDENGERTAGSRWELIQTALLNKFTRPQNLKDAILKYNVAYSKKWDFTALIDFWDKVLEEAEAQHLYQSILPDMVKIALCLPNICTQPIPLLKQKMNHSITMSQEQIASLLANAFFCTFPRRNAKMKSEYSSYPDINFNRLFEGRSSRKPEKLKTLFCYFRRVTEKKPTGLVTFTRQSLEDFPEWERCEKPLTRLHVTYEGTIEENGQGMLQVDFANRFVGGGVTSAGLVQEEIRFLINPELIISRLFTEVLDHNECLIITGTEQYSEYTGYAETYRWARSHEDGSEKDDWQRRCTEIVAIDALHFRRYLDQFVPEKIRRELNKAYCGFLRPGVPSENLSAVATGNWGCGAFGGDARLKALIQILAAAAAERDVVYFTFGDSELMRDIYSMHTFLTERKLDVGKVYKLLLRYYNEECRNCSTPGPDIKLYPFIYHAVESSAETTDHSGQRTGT

With `Cc1ccc(-c2ncn3c(N4CCN(C(=O)N(C)C)CC4)cc(S(=O)(=O)NC4(C)CC4)cc23)cn1` [Example 1, N,N-dimethyl-4-(7-(N-(1-methylcyclopropyl)sulfamoyl)-1-(6-methylpyridin-3-yl)imidazo[1,5-a]pyridin-5-yl)piperazine-1-carboxamide], at hPARG, the 50% inhibitory concentration (IC50) was 0.064 µM. Moreover, the concentration for a half-maximal effect (EC50) in the experiment with PARG in U2OS cells (setting [1]) was over 10 µM; in the experiment on PARG in U2OS cells (setting [2]) it was 1.1 µM; in the experiment with NCIH-460 cells, 13.4 µM; in the experiment with U2OS cells it was over 16.8 µM.

For `CN(C)C(=O)N1CCN(c2cc(S(=O)(=O)NC3(C)CC3)cc3c(-c4ccc(C(F)F)nc4)ncn23)CC1` [Example 3, 4-(1-(6-(difluoromethyl)pyridin-3-yl)-7-(N-(1-methylcyclopropyl)sulfamoyl)imidazo[1,5-a]pyridin-5-yl)-N,N-dimethylpiperazine-1-carboxamide], the IC50 on hPARG is 0.066 µM. Further, the EC50 with PARG in U2OS cells (setting [1]) is over 10 µM; with PARG in U2OS cells (setting [2]) it was 0.218 µM; in the experiment with NCIH-460 cells, 4.47 µM; in the experiment with U2OS cells, over 20 µM.

Consider `Cc1ccc(-c2cnn3c(N4CCN(C(=O)N(C)C)CC4)cc(S(=O)(=O)NC4(C)CC4)cc23)cn1` [Example 5, N,N-dimethyl-4-(5-(N-(1-methylcyclopropyl)sulfamoyl)-3-(6-methylpyridin-3-yl)pyrazolo[1,5-a]pyridin-7-yl)piperazine-1-carboxamide], for which, at hPARG, the IC50 turned out to be 0.054 µM. The concentration for a half-maximal effect (EC50) in the experiment with PARG in U2OS cells (setting [1]) is over 10 µM; in the experiment with PARG in U2OS cells (setting [2]) it was 0.223 µM; with NCIH-460 cells, 3.22 µM; in the experiment with U2OS cells, over 20 µM.

Regarding `CN(C)C(=O)N1CCN(c2cc(S(=O)(=O)NC3(C)CC3)cc3c(-c4ccc(C(F)F)nc4)cnn23)CC1` [Example 7, 4-(3-(6-(difluoromethyl)pyridin-3-yl)-5-(N-(1-methylcyclopropyl)sulfamoyl)pyrazolo[1,5-a]pyridin-7-yl)-N,N-dimethylpiperazine-1-carboxamide], the IC50 on hPARG was 0.028 µM. The concentration giving a half-maximal response (EC50) is over 10 µM in the experiment on PARG in U2OS cells (setting [1]), 0.328 µM in the experiment with PARG in U2OS cells (setting [2]), 3.94 µM with NCIH-460 cells and over 20 µM in the experiment on U2OS cells.

Take `COC(=O)c1cnn2c(N3CCN(C(=O)N(C)C)CC3)cc(S(=O)(=O)NC3(C)CC3)cc12` [Example 8, Methyl 7-(4-(dimethylcarbamoyl)piperazin-1-yl)-5-(N-(1-methylcyclopropyl)sulfamoyl)pyrazolo[1,5-a]pyridine-3-carboxylate]: the concentration for half-maximal inhibition (IC50) on hPARG was determined as 0.043 µM. The values for the 50% effective concentration (EC50) in the experiment on NCIH-460 cells and in the experiment on U2OS cells were 7.22 µM and over 20 µM, respectively.

`CN(C)C(=O)N1CCN(c2cc(S(=O)(=O)NC3(C)CC3)cc3c(-c4nnc(C(F)F)s4)cnn23)CC1` [Example 10, 4-(3-(5-(difluoromethyl)-1,3,4-thiadiazol-2-yl)-5-(N-(1-methylcyclopropyl)sulfamoyl)pyrazolo[1,5-a]pyridin-7-yl)-N,N-dimethylpiperazine-1-carboxamide]: on hPARG, the IC50 came out at 0.042 µM. Besides, the EC50 in the experiment with PARG in U2OS cells (setting [1]) was over 10 µM; in the experiment on PARG in U2OS cells (setting [2]), 0.266 µM; with NCIH-460 cells, 1.3 µM; in the experiment with U2OS cells, over 20 µM.

For `CN(C)C(=O)N1CCN(c2cc(S(=O)(=O)NC3(C)CC3)cc3c(-c4nnc(C(F)F)o4)cnn23)CC1` [Example 11, 4-(3-(5-(difluoromethyl)-1,3,4-oxadiazol-2-yl)-5-(N-(1-methylcyclopropyl)sulfamoyl)pyrazolo[1,5-a]pyridin-7-yl)-N,N-dimethylpiperazine-1-carboxamide], the IC50 at hPARG was 0.098 µM. Further, the concentration giving a half-maximal response (EC50) was over 10 µM with PARG in U2OS cells (setting [1]), 0.739 µM in the experiment with PARG in U2OS cells (setting [2]), 4.58 µM in the experiment with NCIH-460 cells and over 20 µM with U2OS cells.

For the molecule `Cc1nnc(-c2cnn3c(N4CCN(C(=O)N(C)C)CC4)cc(S(=O)(=O)NC4(C)CC4)cc23)s1` [Example 12, N,N-dimethyl-4-(3-(5-methyl-1,3,4-thiadiazol-2-yl)-5-(N-(1-methylcyclopropyl)sulfamoyl)pyrazolo[1,5-a]pyridin-7-yl)piperazine-1-carboxamide], the 50% inhibitory concentration (IC50) on hPARG was 0.038 µM. Moreover, the EC50 in the experiment on PARG in U2OS cells (setting [1]) was over 10 µM; with PARG in U2OS cells (setting [2]) it was 1.49 µM; in the experiment with NCIH-460 cells, 6.05 µM; in the experiment with U2OS cells, over 20 µM.
